Measurements taken from US10774083B2, “Heterocyclic amide compound” (TAKEDA PHARMACEUTICAL COMPANY LIMITED, priority 2016, dated 2020).

Experiments:
[1] = tested on: human ovarian cancer cells A2780; test: proliferation inhibitory activity against human ovarian cancer cell A2780 (CellTiter-Glo); assay type: cell-based; conditions: A2780, 72 h, 1 μM test compound, 3 days of culture, read-out: proliferation inhibitory rate (%) of A2780 cells
Experimental: The proliferation inhibitory activity of the compound of the present invention against human ovarian cancer cell A2780 was evaluated by the following method.
Human ovarian cancer cells A2780 were seeded in a 384 well culture plate at 1000 cells in 30 μL of medium per well by using RPMI-1640 medium (Wako Pure Chemical Industries, Ltd.) containing 10% fetal bovine serum and penicillin/streptomycin. The next day, 10 μL of RPMI-1640 medium containing the test compound was added to the cells. After 3 days of culture, 20 μL of CellTiter-Glo Luminescent Cell Viability Assay solution (Promega) was added. The luminescence signal was measured using EnVision (PerkinElmer) and the inhibitory rate (%) of the test compound was calculated with a well free of seeding of cell as 100% inhibition.

[2] = biological target: T1, human PRS protein (His-Avi-hEPRS (998-1512)) (Homo sapiens, UniProt P07814); test: PRS inhibitory activity ([32P]pyrophosphate exchange enzyme assay); assay type: biochemical; conditions: 300 nM test compound; read-out: inhibitory rate (%) of PRS
T1 construct: to construct His-Avi-hEPRS (998-1512) expression plasmid; His tag (N); Avi tag (N); TEV cleavage site (ENLYFQG, then S; inferred from the forward primer hEPRS-TEV-NheF) (N); made in house; host or cells: E. coli BL21(DE3)
T1 sequence (P07814 998-1512 limits assumed): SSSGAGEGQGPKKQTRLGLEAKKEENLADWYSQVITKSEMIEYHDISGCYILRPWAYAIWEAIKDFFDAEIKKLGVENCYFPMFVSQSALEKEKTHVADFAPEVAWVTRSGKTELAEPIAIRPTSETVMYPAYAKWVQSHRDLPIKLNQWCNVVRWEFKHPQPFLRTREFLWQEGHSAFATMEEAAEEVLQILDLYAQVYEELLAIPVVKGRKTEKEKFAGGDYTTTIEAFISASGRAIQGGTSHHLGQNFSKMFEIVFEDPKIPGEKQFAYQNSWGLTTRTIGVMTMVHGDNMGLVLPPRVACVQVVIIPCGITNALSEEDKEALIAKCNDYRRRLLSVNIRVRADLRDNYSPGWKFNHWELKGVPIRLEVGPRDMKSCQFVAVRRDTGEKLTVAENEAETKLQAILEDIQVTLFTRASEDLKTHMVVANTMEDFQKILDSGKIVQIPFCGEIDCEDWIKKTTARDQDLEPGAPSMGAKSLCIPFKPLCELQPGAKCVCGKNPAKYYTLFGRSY
Experimental: The PRS inhibitory activity of the compounds of the present invention was evaluated by the following method.
An expression plasmid of Catalytic Domain of human EPRS was obtained by PCR using human skeletal muscle cDNA Library (Takara Bio Inc.) as a template and 2 kinds of Primers 5′-[…]-3′ (hEPRS-TEV-NheF) (SEQ ID NO: 1) and 5′-[…]-3′ (hEPRS-St-Not-R) (SEQ ID NO: 2). PCR was performed using PrimeStar GXL DNA Polymerase (Takara Bio Inc.) and included (1) 98° C., 1 min, (2) 35 cycles of 98° C., 10 sec, 65° C., 10 sec, 72° C., 1 min, and (3) reaction at 72° C., 1 min. This was cleaved with Nhe I and Not I (Takara Bio Inc.) and inserted using Ligation High (TOYOBO CO., LTD.) into the Nhe I/Not I site of pET21a (Novagen) with His-Avitag inserted thereinto. This was introduced into ECOS JM109 (NIPPON GENE CO., LTD.) to construct His-Avi-hEPRS (998-1512) expression plasmid.
Recombinant human PRS protein was prepared by transforming the His-Avi-hEPRS (998-1512) expression plasmid prepared above into ECOS Competent E. coli BL21(DE3) (NIPPON GENE CO., LTD.). Escherichia coli obtained by transformation was inoculated into 300 mL of LB medium (1% peptone, 0.5% yeast extract, 0.5% sodium chloride, 0.01% ampicillin) and cultured at 30° C. for 16 hr. The obtained culture medium was transferred into a jar culture tank charged with 6 L of the main fermentation medium (0.3% potassium dihydrogen phosphate, 0.6% disodium hydrogen phosphate, 0.1% ammonium chloride, 0.05% sodium chloride, 0.024% magnesium sulfate, 0.02% NEWPOL LB-625, 1.5% sorbitol, 1.5% casamino acid, 0.5% yeast extract, 0.01% ampicillin) and culturing was started at 37° C., quantity of airflow 5 L/min, stirring rotating speed 400 rpm. At the time point when the turbidity of the culture medium reached about 550 Klett units, the culture temperature was lowered to 16° C., isopropyl-β-D-thiogalactopyranoside (IPTG) was added to the final concentration 0.1 mM, and culturing was performed for another 16 hr to induce expression of human PRS. After completion of culturing, the culture medium was centrifuged at 5,000 rpm for 10 min. The obtained human PRS expressing Escherichia coli was suspended in a buffer containing 50 mM Tris-HCl (pH 8.0), 150 mM NaCl, 1 mM DTT, 5 U/ml Benzonase, 20 mM Imidazole and sonicated using Sonifier (BRANSON). The homogenate was centrifuged (33,000×G, 60 min, Beckman Coulter), the obtained supernatant was subjected to adsorption by passage through Ni-NTA Superflow (QIAGEN) column equilibrated in advance with 50 mM Tris-HCl (pH 8.0), 300 mM NaCl, 1 mM DTT, and elution was performed with a buffer containing 50 mM Tris-HCl (pH 8.0), 300 mM NaCl, 1 mM DTT, 250 mM Imidazole. Furthermore, gel filtration was performed using Superdex200 pg column equilibrated in advance with a buffer containing 50 mM Tris-HCl (pH 8.0), 150 mM NaCl, 1 mM DTT, 10% glycerol to give purified human PRS protein. The protein concentration was measured using BCA Protein Assay Kit (PIERCE) and BSA as the standard.
A test compound was dissolved in 5 μL of an assay buffer (50 mM Tris-HCl (pH 7.5), 20 mM KCl, 1 mM DTT, 0.01% Tween 20) and incubated for 60 min with 5 μL of 40 nM human PRS protein dissolved in the assay buffer containing 40 mM MgCl2. An enzyme reaction of the human PRS protein was started by adding 10 μL of a substrate solution containing 300 μM ATP, 160 μM L-Proline, 400 μM pyrophosphate, [^32P]pyrophosphate (PerkinElmer) prepared to 1 MBq/mL. After incubation at room temperature for 30 min, the reaction was discontinued by adding 50 μL of discontinuation/washing solution (1M HCl, 200 mM sodium pyrophosphate) to the reaction mixture. The reaction solution was transferred to a filter plate (Merck Millipore, Billerica, Mass.) previously added with 200 μL of charcoal solution (0.5% HCl solution containing 10% charcoal (w/v)). […]

| inhibition at 0.3 µM [2] [%] | Structure (SMILES) | inhibition at 1 µM [1] [%] |
| --- | --- | --- |
| 102 | Cn1cc(-c2cc(F)cc(CNC(=O)c3ncnc4nc(C5CCCC5)n(C)c34)c2)nn1 [Example 7, 8-cyclopentyl-N-(3-fluoro-5-(1-methyl-1H-1,2,3-triazol-4-yl)benzyl)-7-methyl-7H-purine-6-carboxamide] | 95 |
| 97 | Cn1cc2c(CNC(=O)c3ncnc4nc(C5CCCC5)[nH]c34)cccc2n1 [Example 10, 8-cyclopentyl-N-((2-methyl-2H-indazol-4-yl)methyl)-7H-purine-6-carboxamide] | 55 |
| 102 | CC(C)n1cc(-c2cc(F)cc(CNC(=O)c3ncnc4nc(C5CCCC5)[nH]c34)c2)cn1 [Example 11, 8-cyclopentyl-N-(3-fluoro-5-(1-isopropyl-1H-pyrazol-4-yl)benzyl)-7H-purine-6-carboxamide] | 95 |
| 100 | O=C(NCc1cc(F)cc(-c2cnn(C3CC3)c2)c1)c1ncnc2nc(C3CCCC3)[nH]c12 [Example 14, 8-cyclopentyl-N-(3-(1-cyclopropyl-1H-pyrazol-4-yl)-5-fluorobenzyl)-7H-purine-6-carboxamide] | 97 |
| 102 | Cn1cc(-c2cc(C#N)cc(CNC(=O)c3ncnc4nc(C5CCCC5)[nH]c34)c2)cn1 [Example 16, N-(3-cyano-5-(1-methyl-1H-pyrazol-4-yl)benzyl)-8-cyclopentyl-7H-purine-6-carboxamide] | 93 |
| 99 | COc1nc(C(=O)NCc2cc(F)cc(-c3cnn(C)c3)c2)c2[nH]c(C3CCCC3)nc2n1 [Example 18, 8-cyclopentyl-N-(3-fluoro-5-(1-methyl-1H-pyrazol-4-yl)benzyl)-2-methoxy-7H-purine-6-carboxamide] | 77 |
| 102 | Cn1cc(-c2cc(C#N)cc(CNC(=O)c3ncnc4nc(C5CCCO5)n(C)c34)c2)cn1 (stereo not drawn) [Example 23, N-(3-cyano-5-(l-methyl-1H-pyrazol-4-yl)benzyl)-7-methyl-8-(tetrahydrofuran-2-yl)-7H-purine-6-carboxamide] | 69 |
| 96 | Cn1cc(-c2cc(F)cc(CNC(=O)c3ncnc4nc(C5CCOC5)[nH]c34)c2)cn1 (stereo not shown) [Example 24, N-(3-fluoro-5-(1-methyl-1H-pyrazol-4-yl)benzyl)-8-(tetrahydrofuran-3-yl)-7H-purine-6-carboxamide] | 57 |
| 99 | Cn1cc(-c2cc(F)cc(CNC(=O)c3ncnc4nc(C5(F)CCCC5)[nH]c34)c2)cn1 [Example 27, 8-(1-fluorocyclopentyl)-N-(3-fluoro-5-(1-methyl-1H-pyrazol-4-yl)benzyl)-7H-purine-6-carboxamide] | 97 |
| 102 | Cn1c(C2CCCC2)nc2ncnc(C(=O)NCc3cc(F)cc(-c4cnn(C(C)(C)CO)c4)c3)c21 [Example 30, 8-cyclopentyl-N-(3-fluoro-5-(1-(1-hydroxy-2-methylpropan-2-yl)-1H-pyrazol-4-yl)benzyl)-7-methyl-7H-purine-6-carboxamide] | 99 |
| 102 | Cn1cc(-c2cc(F)cc(CNC(=O)c3ncnc4nc(C5CCCCO5)[nH]c34)c2)cn1 (stereo not shown) [Example 31, N-(3-fluoro-5-(1-methyl-1H-pyrazol-4-yl)benzyl)-8-(tetrahydro-2H-pyran-2-yl)-7H-purine-6-carboxamide] | 97 |
| 102 | Cn1cc(-c2cc(F)cc(CNC(=O)c3ncnc4nc(C5CCC(F)(F)C5)[nH]c34)c2)cn1 (stereo not shown) [Example 40, 8-(3,3-difluorocyclopentyl)-N-(3-fluoro-5-(1-methyl-1H-pyrazol-4-yl)benzyl)-7H-purine-6-carboxamide] | 98 |
| 98 | Cn1cc(-c2cc(F)cc(CNC(=O)c3nc(N)nc4nc(C5CCCC5)[nH]c34)c2)cn1 [Example 42, 2-amino-8-cyclopentyl-N-(3-fluoro-5-(1-methyl-1H-pyrazol-4-yl)benzyl)-7H-purine-6-carboxamide] | 59 |
| 101 | CC(c1nc2ncnc(C(=O)NCc3cc(F)cc(-c4cnn(C)c4)c3)c2[nH]1)C1CC1 (stereo not shown) [Example 45, 8-(1-cyclopropylethyl)-N-(3-fluoro-5-(1-methyl-1H-pyrazol-4-yl)benzyl)-7H-purine-6-carboxamide] | 99 |
| 99 | Cn1cc(-c2ccnc(CNC(=O)c3ncnc4nc(C5CCCC5)n(C)c34)c2)cn1 [Example 52, 8-cyclopentyl-7-methyl-N-((4-(1-methyl-1H-pyrazol-4-yl)pyridin-2-yl)methyl)-7H-purine-6-carboxamide] | 69 |
| 102 | Cc1cn(-c2cc(F)cc(CNC(=O)c3ncnc4nc(C5CCCC5)n(C)c34)c2)nc1C [Example 56, 8-cyclopentyl-N-(3-(3,4-dimethyl-1H-pyrazol-1-yl)-5-fluorobenzyl)-7-methyl-7H-purine-6-carboxamide] | 99 |
| 99 | Cn1cc(-c2cc(F)cc(CNC(=O)c3ncnc4nc(C5CCC5)[nH]c34)c2)cn1 [Example 58, 8-cyclobutyl-N-(3-fluoro-5-(1-methyl-1H-pyrazol-4-yl)benzyl)-7H-purine-6-carboxamide] | 66 |
